Measurements published in PubChem BioAssay AID1159560 (GlaxoSmithKline (GSK), 2015).
The source made the active and inactive calls. The rule behind the calls is not given here.

Test system: Leishmania donovani growth inhibition
Test: Leishmania donovani growth inhibition (AID 1159560);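 note: parasites exposed to compound for 72 h before the viability read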

SMILES | IC50
O=C(CN(Cc1ccccn1)Cc1ccccn1)NCc1ccc2c(c1)OCO2 | 13 µM
N#Cc1cnc(Nc2cccc(CCN3CCOCC3)c2)nc1Nc1ccccc1C(N)=O | 2.5 µM
N#Cc1cc(-c2ccnc(Nc3cccc(CN4CCOCC4)c3)n2)ccc1NCCN | 4 µM
CC(CNS(=O)(=O)c1ccc(OC(F)F)cc1)c1ccc(NC(=O)c2ccncc2)cc1 (stereo unspecified) | > 50 µM (inactive)
CN(Cc1nc2ccccc2s1)C(=O)C=Cc1cc2ccccc2o1 | 50 µM
CS(=O)(=O)c1ccc(CC(=O)Nc2nc(-c3ccc(Cl)s3)cs2)cc1 | > 50 µM (inactive)
CCNc1cc(-c2ccccn2)nc(Nc2ccc(OC)cc2)n1 | 1.6 µM
Cc1ccc(S(=O)(=O)Nc2ccc(CN3CCN(C(=O)c4cccc(C)c4)CC3)cc2)cc1 | 25 µM
COc1ccc(C(=O)Nc2ccc(NC(=O)CO)cc2)cc1 | > 50 µM (inactive)
Cc1cc(NC(=O)C2CCCCC2)n(-c2nc3c(c(=O)[nH]2)CCC3)n1 | 0.04 µM
Cc1nn(-c2nc(N)nc(-c3ccccn3)n2)c(N)c1-c1ccccc1 | 5 µM
CNC(=O)Oc1ccc(C(=O)NCc2ccccc2)cc1OC(=O)NC | > 50 µM (inactive)
COc1ccc(-c2csc(NC(=O)c3ccc([N+](=O)[O-])s3)n2)cc1 | 3.2 µM
O=C(NC(c1ccc(Cl)cc1)c1cnccn1)C1CCN(C(=O)Nc2cccc(C(F)(F)F)c2)CC1 (stereo unspecified) | 20 µM
Cc1ccc(NC(C)C(=O)Nc2ccc(C#N)cc2)cc1S(=O)(=O)N1CCCCC1 (stereo unspecified) | 0.79 µM
N#CN1CC[C@@H](NC(=O)Nc2ccccc2Oc2ccccc2)C1 | 3.2 µM
CC1CCCN(S(=O)(=O)c2ccc(C(=O)Nc3nc(-c4ccccn4)cs3)cc2)C1 (stereo unspecified) | 1.6 µM
O=C(CC1(O)C(=O)N(Cc2cccs2)c2ccc(Br)cc21)c1cccnc1 (stereo unspecified) | > 50 µM (inactive)
Nc1nonc1-c1nc2cncc(C(=O)N3CC[C@H](N)C3)c2n1CC1CC1 | > 50 µM (inactive)
COc1ccc2ncc(F)c(NC(=O)C3(O)CCC(NCc4ccc5c(c4)OCCO5)CC3)c2n1 (stereo unspecified) | 40 µM
O=C(NCc1nnc2n1CCCCC2)c1csc(-c2ccccc2)n1 | > 50 µM (inactive)
Nc1cc(-c2ccc3ncnc(N4CCOCC4)c3c2)cnc1N | 4 µM

SMILES | IC50
Cc1cc(C)cc(NS(=O)(=O)c2cc(-c3cc(C)[nH]n3)ccc2C)c1 | 2.5 µM
CCN(Cc1nc2ccc(C(=O)N3CCN(c4ncccn4)CC3)cc2[nH]1)C1CCCc2cccnc21 (stereo unspecified) | 5 µM
CCc1nn(-c2ncc(F)c(NC(C)C)n2)c(N)c1C1CCCCC1 | 3.2 µM
COc1ccc(-c2cc(C)no2)cc1S(=O)(=O)Nc1ccc(C)c(C)c1 | 7.9 µM
CCOc1ccc2nc(NC(=O)c3ccc([N+](=O)[O-])s3)sc2c1 | 2.5 µM
Cc1c(Nc2cc(C3CC3)[nH]n2)ccc(C#N)c1Cl | 20 µM
Cc1ccc2ccc(C(Nc3ccccn3)c3cccnc3)c(O)c2n1 (stereo unspecified) | 0.4 µM
O=C(Nc1ccccc1C(=O)Nc1ccccn1)c1ccco1 | > 50 µM (inactive)
CC(C)Nc1nccc(-c2c(-c3ccc(F)cc3)ncn2C2CCOCC2)n1 | 25 µM
CC1CCCCN1C(=O)NCCc1coc(-c2ccc(F)cc2)n1 (stereo unspecified) | > 50 µM (inactive)
O=C1CSC(c2cccnc2)N1c1ccc(Cl)cc1Cl (stereo unspecified) | 5 µM
CC(C)(C)CC(=O)NCc1noc(COc2ccccc2)n1 | > 50 µM (inactive)
Cc1cc(N(C)C)nc(Nc2ccccc2C)n1 | > 50 µM (inactive)
COc1ccc(-c2cc(C)no2)cc1S(=O)(=O)Nc1ccc(F)c(Cl)c1 | 25 µM
COc1cc(OC)cc(C(=O)N[C@@H](CC(C)C)C(=O)NC2(C#N)CC2)c1 | > 50 µM (inactive)
CCCNC(=O)Nc1cccc(-c2nc3ncccc3o2)c1 | 3.2 µM
O=C(CCc1ccc(-c2ccccc2)o1)N1CCN(c2ccc(O)cc2)CC1 | 10 µM
CN(C)S(=O)(=O)c1ccc(Cl)c(C(=O)Nc2nc(-c3ccccn3)cs2)c1 | 2 µM
Cc1nccn1C1CCCN(C(=O)c2cc3c(F)cccc3s2)C1 (stereo unspecified) | 5 µM
C[C@@H](Oc1cc(-n2cnc3ccc(C(O)CO)cc32)sc1C(N)=O)c1ccccc1C(F)(F)F (stereo partly specified) | 16 µM
Cc1nn2c(NCCCO)c3c(nc2c1-c1cccs1)CCC3 | 2 µM
O=C(Nc1nc(-c2ccccn2)cs1)C1CCc2ccccc2C1 (stereo unspecified) | 5 µM

SMILES | IC50
CC(C)COC(=O)Nc1ccc(N2CCC(CNS(=O)(=O)c3ccccc3)CC2)c(F)c1 | 4 µM
CC(C)n1c(-c2nonc2N)nc2cccc(OCCN3CCCC3)c21 | > 50 µM (inactive)
CCOc1ccc(Nc2ccc(S(=O)(=O)N3CCN(C)CC3)cc2[N+](=O)[O-])cc1OCC | 0.79 µM
NS(=O)(=O)c1ccc(Nc2ncc3cccc(OC4CCNCC4)c3n2)cc1 | 40 µM
Cc1[nH]nc2c1C(c1ccc(OCc3ccccc3F)cc1)SCC(=O)N2 (stereo unspecified) | 40 µM
CS(=O)(=O)c1cccc(CNC(=O)c2cncc(N3CCN(c4ccc(F)cc4)CC3)c2)c1 | > 50 µM (inactive)
Cc1[nH]nc(Nc2ccnc3[nH]ccc23)c1C | > 50 µM (inactive)
CCC1Oc2cc(S(=O)(=O)N(C)CC(=O)N3CCc4ccccc4C3)c(C)cc2NC1=O (stereo unspecified) | > 50 µM (inactive)
COc1ccc(Nc2nc(-c3ccccn3)cs2)c(OC)c1 | 6.3 µM
CNC(=O)C1Cc2ccccc2N1C(=O)Cc1ccccc1 (stereo unspecified) | > 50 µM (inactive)
CNS(=O)(=O)c1ccccc1Nc1nc(Nc2ccnn2C)ncc1Cl | 0.2 µM
COc1cc2c(cc1OC)[C@H]1[C@@H](C)c3ccc(OC)c(OC)c3CN1CC2 | 2.5 µM
COc1ccc(C(=O)N2CCC(Nc3cccnc3)C2)c(OC)n1 (stereo unspecified) | 16 µM
CN(Cc1ccc(F)cc1)c1ccc(OCC(=O)N2CCCCC2c2cccnc2)nn1 (stereo unspecified) | 16 µM
CC(C)N(C(=O)CN1C(=O)C(N)C(=O)N(c2ccccc2)c2ccccc21)c1ccccc1 (stereo unspecified) | > 50 µM (inactive)
Cc1ccc(S(=O)(=O)Nc2ccc(CN3CCN(C(=O)c4cccc(C#N)c4)CC3)cc2)cc1 | 10 µM
O=C(CN(Cc1ccccn1)Cc1ccccn1)NCc1ccc(-c2csnn2)cc1 | 7.9 µM
CNc1c(C(N)=O)c(-c2ccc3scnc3c2)nn1CC(F)(F)F | > 50 µM (inactive)
O=C1CN(Cc2ccco2)C2CS(=O)(=O)CC2N1c1ccc(Cl)cc1 (stereo unspecified) | > 50 µM (inactive)
C=CCN(Cc1cccs1)C(=O)CSc1nnc(-c2ccc3c(c2)OCO3)o1 | 6.3 µM
Cc1ccc(Nc2nc(N)nc(CNC(c3nc4ccccc4[nH]3)C(C)C)n2)cc1 (stereo unspecified) | 4 µM
COc1ccc(S(=O)(=O)NCc2ccc(-c3ccc(CN(C)CCO)cc3)cc2)cc1 | > 50 µM (inactive)

SMILES | IC50
COCc1cnc2c(c1SCc1c(F)cccc1Cl)c(=O)n(C)c(=O)n2C | 4 µM
CNc1cc(Cn2c(C(=O)c3cc(C)cc(Cl)c3)c(C(C)C)c(=O)[nH]c2=O)ccn1 | > 50 µM (inactive)
O=[N+]([O-])c1ccc(-c2nnn(-c3ccc(Cl)cc3)n2)o1 | 6.3 µM
COc1ccc(C(C)N(C)c2ncc3c(N)nc(N)nc3n2)cc1F (stereo unspecified) | 4 µM
CN(Cc1ccccc1)Cc1nnnn1C1CCN(Cc2ccc(-n3ccnc3)cc2)CC1 | > 50 µM (inactive)
OC[C@@H](Nc1nccc(-c2c(-c3ccc(F)cc3)ncn2C2CCNCC2)n1)c1ccccc1 | > 50 µM (inactive)
N#Cc1c(Oc2cccc(Cl)c2)cccc1[N+](=O)[O-] | 7.9 µM
Clc1cc(Br)ccc1OCCCCn1ccnc1 | 0.13 µM
Cc1ccc2sc(NC(=O)Cn3cnc([N+](=O)[O-])n3)nc2c1 | > 50 µM (inactive)
C=CCn1nc([N+](=O)[O-])nc1Oc1ccc(Cl)cc1Cl | > 50 µM (inactive)
O=C(Cc1ccc2c(c1)CCC2)Nc1n[nH]c(-c2ccccn2)n1 | 7.9 µM
COCCn1cnc2cc(NC(=O)C3CCCCC3)cc(C(=O)N3CCc4sccc4C3)c21 | > 50 µM (inactive)
CC(C)(C)c1cc(NC2CC2)nc(-c2ccccn2)n1 | 1.6 µM
CC(c1ccccn1)N(C)Cc1nc2ccccc2n1C(C)C (stereo unspecified) | 10 µM
O=C(NCC(c1cccnc1)N1CCc2ccccc2C1)C(=O)Nc1cccc(Cl)c1 (stereo unspecified) | 1.3 µM
NS(=O)(=O)c1ccc(CNC(=O)c2ccc([N+](=O)[O-])s2)cc1 | 32 µM
c1ccc(Nc2nc(-c3ccccn3)cc(N3CCOCC3)n2)cc1 | 6.3 µM
COc1cnc2ccc(=O)n(CCN3CCC(NC/C=C/c4cc(F)ccc4F)CC3)c2c1 | 5 µM
CS(=O)(=O)c1cccc(-c2cnc(N)c3c(-c4ccc(CO)cc4)csc23)c1 | 40 µM
CNc1cncc(C2CCCN2C(=O)Cc2coc3cc(C)ccc23)n1 (stereo unspecified) | 3.2 µM
NC(=O)c1ccccc1Nc1nc(NC2CCCCC2)nc2[nH]ccc12 | 20 µM
Fc1ccc(OC2CC(NCc3cccc4cn[nH]c34)C2)cc1C(F)(F)F (stereo unspecified) | 20 µM

SMILES | IC50
CC(C)c1cc(C(=O)N2CCCC(c3cc4ncccc4[nH]3)C2)on1 (stereo unspecified) | > 50 µM (inactive)
Cc1cccc(NS(=O)(=O)c2ccc3c(c2)C(=O)c2cc(S(=O)(=O)Nc4cccc(C)c4C)ccc2-3)c1C | > 50 µM (inactive)
Cc1cn[nH]c1C1CCCN(Cc2nc3ccccc3n2C)C1 (stereo unspecified) | 16 µM
O=C(Nc1nc(-c2ccccn2)cs1)c1ccccc1-n1cnnn1 | 3.2 µM
c1cncc(CN(Cc2ccco2)Cc2cn[nH]c2-c2cccs2)c1 | 32 µM
Nc1nccc(-c2csc(Nc3ccc(Cl)cc3)n2)n1 | 4 µM
Cc1nn(-c2nc3ccccc3s2)c2c1C(c1ccc(OCC(N)=O)cc1)SCC(=O)N2 (stereo unspecified) | > 50 µM (inactive)
COc1ccc(C)cc1-c1csc(NC(=O)C(C)n2ccnc2)n1 (stereo unspecified) | 3.2 µM
O=C(NC1CCN(C2Cc3ccc(NS(=O)(=O)c4cc(F)cc(F)c4)cc3C2)CC1)C1CC1 (stereo unspecified) | 25 µM
CC(=O)Nc1ccc(-c2cnc(N)c(-c3nc4ccc(F)cc4[nH]3)c2)cc1 | 6.3 µM
CNS(=O)(=O)c1ccccc1Nc1nc(Nc2cc(C)nn2C)ncc1Cl | 0.25 µM
c1cc(-c2ncc(-c3ccn[nH]3)s2)ccn1 | > 50 µM (inactive)
CCc1cccc(-n2nc(OCC(=O)NC3CCCC3)c3cccnc32)c1 | 2.5 µM
COC(=O)c1ccc(-c2cnc3ccc(NCc4ccccn4)nn23)cc1 | 13 µM
O=C(Nc1ncc([N+](=O)[O-])s1)C1CC1 | 40 µM
CC(=O)Nc1cccc(Nc2ncnc3nc[nH]c23)c1 | > 50 µM (inactive)
CC(c1ccc2c(c1)CCCC2)N(C)c1ncc2c(N)nc(N)nc2n1 (stereo unspecified) | 2.5 µM
NC(=O)c1ncc(N[C@@H]2CCCNC2)nc1Nc1cccc(Cl)c1 | 2.5 µM
